Source: US8466199B2, “Allyloxy and alkyloxy benzoic acid delivery agents” (Emisphere Technologies, Inc., priority 2007, dated 2013)

What was measured:
[1] = system: fasted male Sprague-Dawley rats; assay: Oral delivery of insulin to male Sprague-Dawley rats (blood glucose by glucometer, compared to vehicle control); type: in vivo, rat; conditions: oral gavage, 200 mg/kg delivery agent + 0.5 mg/kg insulin, C minimum over 0-60 min, average of experiments
Procedure: Insulin stock solution (15 mg/ml) (Human zinc insulin, Calbiochem-Novabiochem Corp., La Jolla, Calif.) was prepared with deionized water. Oral dosing compositions containing 200 mg/kg of a delivery agent compound of the present invention and 0.5 mg/kg of insulin in an aqueous solution were prepared for the compounds prepared in Examples 2-24.
(§1) One ml of the dosing solution was administered to fasted male Sprague-Dawley rats by oral gavage with an average weight of about 225-250 grams Blood glucose levels were then determined by glucometer (One Touch Ultra®, LifeScan, Inc.) and compared to vehicle control (1 ml/kg of water). Samples were collected prior to dosing (time 0) and at 15, 30, 45 and 60 minutes after dosing. The % glucose reduction is shown below in Table 1. The values correspond to the C minimum, and are an average % reduction with respect to the number of times the experiment was run for each delivery agent.
The solutions were administered to fasted male Sprague-Dawley rats and the % glucose reduction was determined in the same manner as described above.
as §1, with “Insulin stock solution (15 mg/ml) (Human zinc insulin, Calbiochem-Novabiochem Corp., La Jolla, Calif.) was prepared with deionized water. Oral dosing compositions containing 200 mg/kg of a delivery agent compound of the present invention and 0.5 mg/kg of insulin in an aqueous solution were prepared for the compounds prepared in Examples 27-34. One ml” for “One ml”, “about 225-250 grams. Blood glucose” for “about 225-250 grams Blood glucose”, “in Table 3. The values” for “in Table 1. The values”
as §1, with “Insulin stock solution (15 mg/ml) (Human zinc insulin, Calbiochem-Novabiochem Corp., La Jolla, Calif.) was prepared with deionized water. Oral dosing compositions containing 200 mg/kg of a delivery agent compound of the present invention and 0.5 mg/kg of insulin in an aqueous solution were prepared for the compounds prepared in Examples 37-49. One ml” for “One ml”, “about 225-250 grams. Blood glucose” for “about 225-250 grams Blood glucose”, “in Table 5. The values” for “in Table 1. The values”

[2] = system: fasted male Sprague-Dawley rats; assay: as above; type: in vivo, rat
[3] = Table 2, Insulin Dose 0 mg/kg, Carrier Dose 200 mg/kg
[4] = Table 2, Insulin Dose 0.25 mg/kg, Carrier Dose 200 mg/kg

## C=CCOc1ccc(C(C)=O)cc1C(=O)O [Compound 17, 5-Acetyl-2-allyloxy-benzoic acid]
[1]; Table 1, aqueous solution
  Glucose (Absolute change from Control): 0.6%

## CCCOCc1cccc(C(=O)O)c1 [Compound 44, 3-Propoxymethyl-benzoic acid]
[1]; Table 5
  Glucose (Absolute change from Control): −20.8%

## C=C(C)COc1ccccc1C(=O)O [Compound 15, 2-(2-Methyl-allyloxy)-benzoic acid]
[1]; Table 1, aqueous solution
  Glucose (Absolute change from Control): −37.4%

## C=CCOc1ccc(Br)cc1C(=O)O [Compound 18, 2-Allyloxy-5-bromo-benzoic acid]
[1]; Table 1, aqueous solution
  Glucose (Absolute change from Control): −5.0%

## C=C(C)COc1cccc(C(=O)O)c1 [Compound 21, 3-(2-Methyl-allyloxy)-benzoic acid]
[1]; Table 1, aqueous solution
  Glucose (Absolute change from Control): −27.4%

## C=CCOCc1cccc(C(=O)O)c1 [Compound 38, 3-Allyloxymethyl-benzoic acid]
[1]; Table 5
  Glucose (Absolute change from Control): −13.1%

## CC(C)COc1ccc(C(=O)O)cc1 [Compound 30, 4-Isobutoxy-benzoic acid]
[1]; Table 3
  Glucose (Absolute change from Control): −29.8%

## CCCOc1ccc(C(=O)O)cc1 [Compound 25, 4-Propoxy-benzoic acid]
[1]; Table 3
  Glucose (Absolute change from Control): −25.5%

## C=CCOCc1ccc(C(=O)O)cc1 [Compound 32, 4-Allyloxymethyl-benzoic acid]
[1]; Table 5
  Glucose (Absolute change from Control): −19.5%

## CC(C)OCc1cccc(C(=O)O)c1 [Compound 43, 3-Isopropoxymethyl-benzoic acid]
[1]; Table 5
  Glucose (Absolute change from Control): −29.3%

## CC(C)=CCOc1ccccc1C(=O)O [Compound 7, 2-(3-Methyl-but-2-enyloxy)-benzoic acid]
[1]; Table 1, aqueous solution
  Glucose (Absolute change from Control): −38.8%

## CCCOCc1ccc(C(=O)O)cc1 [Compound 41, 4-Propoxymethyl-benzoic acid]
[1]; Table 5
  Glucose (Absolute change from Control): −19.2%

## CCCCOc1ccc(C(=O)O)cc1 [Compound 28, 4-Butoxy-benzoic acid]
[1]; Table 3
  Glucose (Absolute change from Control): −22.3%

## C=CCOc1ccc(C)cc1C(=O)O [Compound 13, 2-Allyloxy-5-methyl-benzoic acid]
[1]; Table 1, aqueous solution
  Glucose (Absolute change from Control): −30.7%

## C=CCCOc1ccccc1C(=O)O [Compound 3, 2-But-3-enyloxy-benzoic acid]
[1]; Table 1, aqueous solution
  Glucose (Absolute change from Control): −25.5%

## C=CCOc1cc(OC)ccc1C(=O)O [Compound 11, 2-Allyloxy-4-methoxy-benzoic acid]
[1]; Table 1, aqueous solution
  Glucose (Absolute change from Control): −24.0%

## C=CCOc1cccc(C)c1C(=O)O [Compound 14, 2-Allyloxy-6-methyl-benzoic acid]
[1]; Table 1, aqueous solution
  Glucose (Absolute change from Control): −14.4%

## CCCCOc1ccccc1C(=O)O [Compound 29, 2-Butoxy-benzoic acid]
[1]; Table 3
  Glucose (Absolute change from Control): −34.9%

## C=CCOc1ccc(OC)cc1C(=O)O [Compound 10, 2-Allyloxy-5-methoxy-benzoic acid]
[1]; Table 1, aqueous solution
  Glucose (Absolute change from Control): −27.2%

## CCOCc1cccc(C(=O)O)c1 [Compound 42, 3-Ethoxymethyl-benzoic acid]
[1]; Table 5
  Glucose (Absolute change from Control): −11.3%

## CCOCc1ccc(C(=O)O)cc1 [Compound 39, 4-Ethoxymethyl-benzoic acid]
[1]; Table 5
  Glucose (Absolute change from Control): −1.9%

## CC(C)COc1cccc(C(=O)O)c1 [Compound 31, 3-Isobutoxy-benzoic acid]
[1]; Table 3
  Glucose (Absolute change from Control): −9.5%

## C=C(C)COc1ccc(C(=O)O)cc1 [Compound 20, 4-(2-Methyl-allyloxy)-benzoic acid]
[1]; Table 1, aqueous solution
  Glucose (Absolute change from Control): −51.1%

## CC(C)=CCOc1ccc(C(=O)O)cc1 [Compound 9, 4-(3-Methyl-but-2-enyloxy)-benzoic acid]
[1]; Table 1, aqueous solution
  Glucose (Absolute change from Control): −27.8%

## C=C(C)COc1cc(C(=O)O)ccc1OC [Compound 23, 4-Methoxy-3-(2-methyl-allyloxy)-benzoic acid]
[1]; Table 1, aqueous solution
  Glucose (Absolute change from Control): −8.4%

## C=CCOc1ccccc1C(=O)O [Compound 1, 2-Allyloxy-benzoic acid]
[1]; Table 1, aqueous solution
  Glucose (Absolute change from Control): −35.1%
[2]; [3]
  Glucose (Absolute change from Control): −12.5%
[2]; Table 2, Insulin Dose 0.25 mg/kg, Carrier Dose 100 mg/kg
  Glucose (Absolute change from Control): −17.9%
[2]; [4]
  Glucose (Absolute change from Control): 3.0%

## C=CCCOc1cccc(C(=O)O)c1 [Compound 5, 3-But-3-enyloxy-benzoic acid]
[1]; Table 1, aqueous solution
  Glucose (Absolute change from Control): −40.8%
[2]; [3]
  Glucose (Absolute change from Control): −6.3%
[2]; [4]
  Glucose (Absolute change from Control): −5.4%

## CCCOc1cccc(C(=O)O)c1 [Compound 24, 3-Propoxy-benzoic acid]
[1]; Table 3
  Glucose (Absolute change from Control): −15.2%

## C=C(C)COCc1cccc(C(=O)O)c1 [Compound 37, 3-(2-Methyl-allyloxymethyl)-benzoic acid]
[1]; Table 5
  Glucose (Absolute change from Control): −8.4%

## C=CC(C)OCc1ccc(C(=O)O)cc1 (centres unmarked) [Compound 34, 4-(1-Methyl-allyloxymethyl)-benzoic acid]
[1]; Table 5
  Glucose (Absolute change from Control): −16.6%

## C=CCCOCc1cccc(C(=O)O)c1 [Compound 36, 3-But-3-enyloxymethyl-benzoic acid]
[1]; Table 5
  Glucose (Absolute change from Control): −20.7%

## CC(C)=CCOc1cccc(C(=O)O)c1 [Compound 8, 3-(3-Methyl-but-2-enyloxy)-benzoic acid]
[1]; Table 1, aqueous solution
  Glucose (Absolute change from Control): −31.6%

## CCCCOc1cccc(C(=O)O)c1 [Compound 27, 3-Butoxy-benzoic acid]
[1]; Table 3
  Glucose (Absolute change from Control): −23.9%

## C=CCOc1c(OC)cccc1C(=O)O [Compound 12, 2-Allyloxy-3-methoxy-benzoic acid]
[1]; Table 1, aqueous solution
  Glucose (Absolute change from Control): −13.5%

## C=CCOc1ccc(C(=O)O)cc1 [Compound 2, 4-Allyloxy-benzoic acid]
[1]; Table 1, aqueous solution
  Glucose (Absolute change from Control): −42.4%

## C=CCCOc1ccc(C(=O)O)cc1 [Compound 4, 4-But-3-enyloxy-benzoic acid]
[1]; Table 1, aqueous solution
  Glucose (Absolute change from Control): −41.6%
[2]; [3]
  Glucose (Absolute change from Control): 8.8%
[2]; [4]
  Glucose (Absolute change from Control): −11.4%

## C=C(C)COCc1ccc(C(=O)O)cc1 [Compound 35, 4-(2-Methyl-allyloxymethyl)-benzoic acid]
[1]; Table 5
  Glucose (Absolute change from Control): −16.0%

## C=CCOc1cccc(C(=O)O)c1 [Compound 6, 3-Allyloxy-benzoic acid]
[1]; Table 1, aqueous solution
  Glucose (Absolute change from Control): −42.8%
[2]; [3]
  Glucose (Absolute change from Control): −10.7%
[2]; [4]
  Glucose (Absolute change from Control): −18.2%

## CC(C)OCc1ccc(C(=O)O)cc1 [Compound 40, 4-Isopropoxymethyl-benzoic acid]
[1]; Table 5
  Glucose (Absolute change from Control): −31.9%

## C=CCOc1cc(C(=O)O)ccc1OC [Compound 22, 3-Allyloxy-4-methoxy-benzoic acid]
[1]; Table 1, aqueous solution
  Glucose (Absolute change from Control): −10.2%

## C=CCOc1ccc(Cl)cc1C(=O)O [Compound 19, 2-Allyloxy-5-chloro-benzoic acid]
[1]; Table 1, aqueous solution
  Glucose (Absolute change from Control): −21.5%

## C=CCCOCc1ccc(C(=O)O)cc1 [Compound 33, 4-But-3-enyloxymethyl-benzoic acid]
[1]; Table 5
  Glucose (Absolute change from Control): −38.5%

## C=CCOc1cc(OCCO)ccc1C(=O)O [Compound 16, 2-Allyloxy-4-(2-hydroxy-ethoxy)-benzoic acid]
[1]; Table 1, aqueous solution
  Glucose (Absolute change from Control): −4.6%

## CCCOc1ccccc1C(=O)O [Compound 26, 2-Propoxy-benzoic acid]
[1]; Table 3
  Glucose (Absolute change from Control): −14.2%
